According to paper PMC4578755, “Development of novel cellular histone-binding and chromatin-displacement assays for bromodomain drug discovery” (Epigenetics & Chromatin, 2015):

Target: T1, TRIM24-PB chromatin binding in HeLa TRIM24-PB cells (Homo sapiens, UniProt O15164)
T1 construct: The FLAG-TRIM24-PB construct (residues 810–1050) was generated by PCR amplification; expressed in transfected cells
T1 sequence (O15164 810-1050): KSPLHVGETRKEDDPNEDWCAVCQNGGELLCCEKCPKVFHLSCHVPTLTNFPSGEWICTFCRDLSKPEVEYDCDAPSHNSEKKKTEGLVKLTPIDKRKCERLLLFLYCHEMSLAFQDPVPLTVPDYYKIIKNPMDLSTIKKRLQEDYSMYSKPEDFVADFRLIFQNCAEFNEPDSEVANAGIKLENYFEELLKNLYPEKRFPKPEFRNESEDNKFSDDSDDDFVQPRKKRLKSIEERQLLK
Assay: In situ cell extraction with IF in HeLa TRIM24-PB cells
Format: cell-based
Experimental: OV90 or HeLa cells (20,000 cells/100 µL) were seeded into 96-well plates (Corning Costar #3603) using RPMI or DMEM medium, respectively, supplemented with 10 % FBS and grown overnight. Test agents were serially diluted in DMSO (with or without SAHA) to generate 10X master compound plates. From here, 11 µL was transferred into each well containing 100 µL of growth media followed by shaking on a rotation table (15 min, 300 rpm at RT) and incubation at 37 °C for 2 h. Plates were washed once with PBS (150 µL/well) and then with cold, freshly prepared Cytoskeleton (CSK) Buffer (10 mM PIPES, 300 mM Sucrose, 100 mM NaCl, 3 mM MgCl2; pH = 6.8). Immediately thereafter, soluble, non-chromatin-bound proteins were extracted by addition of cold CSK Buffer supplemented with 0.5 % Triton X-100 (150 µL per well) for 10 min at 4 °C followed by 4 % paraformaldehyde fixation (10 min at RT) (Additional file 1: Table S3).
Standard IF procedures were used. Briefly, cells were permeabilized (0.5 % Triton X-100 in PBS) for 15 min and incubated with blocking solution (DAKO #X0909) for 30 min. The following primary antibodies were used: goat anti-V5 (Bethyl #A190-119A) 1:200; mouse anti-FLAG (Sigma #F1804) 1:200; rabbit anti-BRD4 (Abcam #ab128874) 1:200; rabbit anti-TRIM24 (Proteintech #14208-1-AP) 1:400; rabbit anti-K3K23Ac (Cell Signaling #8848) 1:200, and mouse anti-histone H3 (Active Motif #39763) 1:4000. Alexa Fluor-conjugated secondary antibodies were from Invitrogen and Hoechst 33342 (Invitrogen, #H3570) was used for nuclei counterstaining (10 µg/ml). For each Alexa fluorochrome, images (4–10 fields per well; 20X magnifications) were acquired using the Operetta High-Content Screening System (PerkinElmer). Image analysis was performed in Harmony software (PerkinElmer) by selecting nuclei and cytoplasm in Hoechst channel. Gating for single cells of flat morphology was done based on nuclei area, roundness and intensity of Hoechst in the nucleus and in the cytoplasm. In every gated cell, the mean signal intensity value for each fluorochrome was calculated separately in nucleus and cytoplasm. The specific nuclear signal was estimated subtracting mean cytoplasmic value from nuclear; and average value was calculated using at least 1000 cells in each well.
Supplemental Table S3 (Zhan et al.)
Table S3. In Situ Cell Extraction Procedure (IF)
Step Parameter Solution Volume Time Temp (°C)
Seed cells DMEM supplemented with 10 % FBS 37°C,
2 SAHA treatment SAHA (50 µM) in DMEM with 10% FBS 12 µL 2h 37°C,
3 Prepare Master 100X final concentration in assay 30 µL […]
Image analysis: The analysis was performed in Harmony (PerkinElmer) software by selecting nuclei and cytoplasm in Hoechst 33342 channel . […] For each channel “mean nuclear signal“ was calculated as “mean […]

In the case of O=C(CCCCCCC(=O)Nc1ccccc1)NO [SAHA, Suberoylanilide Hydroxamic Acid], the “SAHA-induced TRIM24-PB chromatin binding (assay window)” value (anti-FLAG antibody) is reported as “fivefold” and the “SAHA-induced TRIM24-PB chromatin binding (assay window)” value (anti-TRIM24 antibody) is reported as “twofold”.

In the case of Cc1nc(S(=O)(=O)Nc2cc3c(cc2Oc2cccc(OCC(C)C)c2)n(C)c(=O)n3C)cn1C [IACS-6558, N-{1,3-dimethyl-6-[3-(2-methylpropoxy)phenoxy]-2-oxo-2,3-dihydro-1H-1,3-benzodiazol-5-yl}-1,2-dimethyl-1H-imidazole-4-sulfonamide], the “Time to displacement of TRIM24-PB from chromatin” value (HeLa TRIM24-PB) is reported as at most 5 min and the “IF signal of chromatin-bound TRIM24-PB” value (HeLa TRIM24-PB with SAHA, anti-FLAG and anti-TRIM24 antibodies, 2 h) is reported as “reducing the IF signal to baseline”.
